Values quoted from earlier work, collected in EP4691460A1, “RAMELTEON SUBLINGUAL FILM AND PREPARATION METHOD THEREFOR” (Hangzhou Chengbang Pharmaceutical Technology Co., Ltd, priority 2023, dated 2024).

Experiments:
[1] = target: MT1 receptors (Homo sapiens, UniProt P48039); conditions: fraction of the affinity of ramelteon
[2] = target: T1, MT2 receptors (Homo sapiens, UniProt P49286); conditions: fraction of the affinity of ramelteon
T1 sequence (P49286 1-362): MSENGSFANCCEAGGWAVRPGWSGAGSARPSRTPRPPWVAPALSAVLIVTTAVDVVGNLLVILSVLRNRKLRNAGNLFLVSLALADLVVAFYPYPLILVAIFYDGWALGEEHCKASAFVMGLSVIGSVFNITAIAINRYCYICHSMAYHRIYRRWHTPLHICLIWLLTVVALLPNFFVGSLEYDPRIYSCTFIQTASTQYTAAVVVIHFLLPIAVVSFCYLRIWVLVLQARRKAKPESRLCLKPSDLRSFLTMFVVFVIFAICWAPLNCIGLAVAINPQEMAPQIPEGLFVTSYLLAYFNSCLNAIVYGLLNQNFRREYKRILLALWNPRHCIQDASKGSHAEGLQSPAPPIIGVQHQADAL

[3] = oral administration, clinical data
[4] = taken with a high-fat meal versus fasting

MT1 receptors, sequence (P48039 whole entry): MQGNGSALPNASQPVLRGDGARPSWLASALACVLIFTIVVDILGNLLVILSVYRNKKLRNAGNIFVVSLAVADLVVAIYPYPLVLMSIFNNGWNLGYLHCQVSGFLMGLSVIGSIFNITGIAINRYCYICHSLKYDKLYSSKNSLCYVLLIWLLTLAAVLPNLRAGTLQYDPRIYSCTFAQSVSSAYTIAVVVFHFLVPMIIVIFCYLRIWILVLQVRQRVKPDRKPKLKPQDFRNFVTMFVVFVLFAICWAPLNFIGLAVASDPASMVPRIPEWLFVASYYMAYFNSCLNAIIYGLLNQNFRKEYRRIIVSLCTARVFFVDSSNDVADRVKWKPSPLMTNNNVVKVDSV

Row | total amount relative to the metabolic substrate (main metabolite versus ramelteon) | affinity with MT1 receptors relative to the metabolic substrate [1] | affinity with MT2 receptors relative to the metabolic substrate [2] | drug absorbed after oral administration [3] | median time to peak drug concentration [3] | absolute bioavailability (oral administration, first pass effect) [%] | AUC higher than that of fasting administration (taken with a high-fat meal) [%] | Cmax reduction [4] [%] | median Tmax delay [4] [min] | SMILES
1 | 20-100 times | about one fifth | one tenth |  |  |  |  |  |  | CC(O)C(=O)NCC[C@@H]1CCc2ccc3c(c21)CCO3 (stereo partly drawn) [M-II]
2 |  |  |  | At least 84% | approximately 0.75 (0.5-1.5) h | 1.4 | 31 | 22 | 45 | CCC(=O)NCC[C@@H]1CCc2ccc3c(c21)CCO3 [ramelteon, Ramelteon]
